# Results as given in paper PMC6522510 (Nature Communications, 2019).
# Where a name gives a salt, the structure may show the parent alone. Read-outs that look alike come from different tables or passages of the source.
# Key:
# Design in all cases: species or system AML cell lines (8); Primary HTS, single concentration about 10 uM, Cell Titer Glo viability; log10 luminescence, per cent inhibition relative to cycloheximide control
# Settings in all cases: 72 h, relative to cycloheximide control, log10 luminescence, inhibitor
# [1] = tested on: U937
# [2] = tested on: CMS
# [3] = tested on: ML-2
# [4] = tested on: CMK
# [5] = tested on: M07e
# [6] = tested on: MV4-11
# [7] = tested on: CHRF288-11
# [8] = tested on: MOLM-13
compound,measurement,setting,value
"CC(=O)OCC(=O)[C@@]12OC(C)(C)O[C@@H]1C[C@H]1[C@@H]3C[C@H](F)C4=CC(=O)C=C[C@]4(C)[C@@]3(F)[C@@H](O)C[C@@]12C [SJ000285768-4, FLUOCINONIDE]",U937 %inh,[1],4.65%
same,CMS %inh,[2],8.496%
same,ML-2 %inh,[3],0.7594%
same,CMK %inh,[4],3.895%
same,M07e %inh,[5],4.323%
same,MV4-11 %inh,[6],1.473%
same,CHRF288-11 %inh,[7],0.7625%
same,MOLM-13 %inh,[8],6.203%
"Cc1ccc(C)c(OCCCC(C)(C)C(=O)O)c1 [SJ000285775-4, GEMFIBROZIL]",U937 %inh,"[1]; U937 %inh, 10 µM",-0.006863%
same,CMS %inh,"[2]; CMS %inh, 10 µM",6.72%
same,ML-2 %inh,"[3]; ML-2 %inh, 10 µM",-0.7985%
same,CMK %inh,"[4]; CMK %inh, 10 µM",2.032%
same,M07e %inh,"[5]; M07e %inh, 10 µM",3.732%
same,MV4-11 %inh,"[6]; MV4-11 %inh, 10 µM",1.327%
same,CHRF288-11 %inh,"[7]; CHRF288-11 %inh, 10 µM",-1.527%
same,MOLM-13 %inh,"[8]; MOLM-13 %inh, 10 µM",2.26%
"Cc1ccc(C)c(OCCCC(C)(C)C(=O)O)c1 [SJ000285775-5, GEMFIBROZIL]",U937 %inh,"[1]; U937 %inh, 10 µM",12.09%
same,CMS %inh,"[2]; CMS %inh, 10 µM",12.02%
same,ML-2 %inh,"[3]; ML-2 %inh, 10 µM",5.256%
same,CMK %inh,"[4]; CMK %inh, 10 µM",52.47%
same,M07e %inh,"[5]; M07e %inh, 10 µM",4.331%
same,MV4-11 %inh,"[6]; MV4-11 %inh, 10 µM",21.39%
same,CHRF288-11 %inh,"[7]; CHRF288-11 %inh, 10 µM",15.66%
same,MOLM-13 %inh,"[8]; MOLM-13 %inh, 10 µM",7.787%
"N=C(N)NCCN1CCCCCCC1 [SJ000285779-4, GUANETHIDINE SULFATE]",U937 %inh,[1],-2.581%
same,CMS %inh,[2],-3.451%
same,ML-2 %inh,[3],1.503%
same,CMK %inh,[4],-2.691%
same,M07e %inh,[5],0.2704%
same,MV4-11 %inh,[6],-2.801%
same,CHRF288-11 %inh,[7],-6.834%
same,MOLM-13 %inh,[8],-0.2658%
"NS(=O)(=O)c1cc2c(cc1Cl)NCNS2(=O)=O [SJ000285785-7, HYDROCHLOROTHIAZIDE]",U937 %inh,[1],-0.1321%
same,CMS %inh,[2],1.584%
same,ML-2 %inh,[3],4.295%
same,CMK %inh,[4],2.395%
same,M07e %inh,[5],-2.196%
same,MV4-11 %inh,[6],1.232%
same,CHRF288-11 %inh,[7],2.834%
same,MOLM-13 %inh,[8],5.809%
"CCCCCC(=O)O[C@]1(C(C)=O)CC[C@H]2[C@@H]3CCC4=CC(=O)CC[C@]4(C)[C@H]3CC[C@@]21C [SJ000285789-3, HYDROXYPROGESTERONE CAPROATE]",U937 %inh,[1],3.003%
same,CMS %inh,[2],-0.655%
same,ML-2 %inh,[3],-1.962%
same,CMK %inh,[4],2.985%
same,M07e %inh,[5],0.1043%
same,MV4-11 %inh,[6],-1.131%
same,CHRF288-11 %inh,[7],-3.09%
same,MOLM-13 %inh,[8],1.659%
"CC(=O)Nc1nnc(S(N)(=O)=O)s1 [SJ000285803-7, ACETAZOLAMIDE]",U937 %inh,[1],-0.874%
same,CMS %inh,[2],0.5025%
same,ML-2 %inh,[3],-2.151%
same,CMK %inh,[4],2.601%
same,M07e %inh,[5],-1.461%
same,MV4-11 %inh,[6],1.807%
same,CHRF288-11 %inh,[7],0.8463%
same,MOLM-13 %inh,[8],3.554%
"Oc1ncnc2[nH]ncc12 [SJ000285807-6, ALLOPURINOL]",U937 %inh,[1],0.524%
same,CMS %inh,[2],-3.837%
same,ML-2 %inh,[3],-1.752%
same,CMK %inh,[4],-2.837%
same,M07e %inh,[5],-3.01%
same,MV4-11 %inh,[6],-0.8311%
same,CHRF288-11 %inh,[7],0.3228%
same,MOLM-13 %inh,[8],-2.79%
"COc1ccc(C(Cl)=C(c2ccc(OC)cc2)c2ccc(OC)cc2)cc1 [SJ000285822-4, CHLOROTRIANISENE]",U937 %inh,[1],7.913%
same,CMS %inh,[2],1.562%
same,ML-2 %inh,[3],4.119%
same,CMK %inh,[4],7.136%
same,M07e %inh,[5],9.609%
same,MV4-11 %inh,[6],5.688%
same,CHRF288-11 %inh,[7],-2.199%
same,MOLM-13 %inh,[8],5.231%
"NC(N)=Nc1nc(CSCC/C(N)=N/S(N)(=O)=O)cs1 [SJ000285829-7, FAMOTIDINE]",U937 %inh,[1],7.705%
same,CMS %inh,[2],0.7839%
same,ML-2 %inh,[3],2.616%
same,CMK %inh,[4],0.6614%
same,M07e %inh,[5],1.389%
same,MV4-11 %inh,[6],-0.5719%
same,CHRF288-11 %inh,[7],-4.142%
same,MOLM-13 %inh,[8],1.07%
"CCc1cccc2c3c([nH]c12)C(CC)(CC(=O)O)OCC3 (centres unmarked) [SJ000285831-7, ETODOLAC]",U937 %inh,[1],-0.08316%
same,CMS %inh,[2],0.03623%
same,ML-2 %inh,[3],1.517%
same,CMK %inh,[4],4.628%
same,M07e %inh,[5],4.534%
same,MV4-11 %inh,[6],1.346%
same,CHRF288-11 %inh,[7],-0.814%
same,MOLM-13 %inh,[8],1.754%
"Nc1ccc(S(=O)(=O)Nc2ccccn2)cc1 [SJ000285852-4, SULFAPYRIDINE]",U937 %inh,"[1]; U937 %inh, 10 µM",2.235%
same,CMS %inh,"[2]; CMS %inh, 10 µM",2.156%
same,ML-2 %inh,"[3]; ML-2 %inh, 10 µM",1.702%
same,CMK %inh,"[4]; CMK %inh, 10 µM",-3.962%
same,M07e %inh,"[5]; M07e %inh, 10 µM",-0.2217%
same,MV4-11 %inh,"[6]; MV4-11 %inh, 10 µM",0.2362%
same,CHRF288-11 %inh,"[7]; CHRF288-11 %inh, 10 µM",-1.153%
same,MOLM-13 %inh,"[8]; MOLM-13 %inh, 10 µM",-2.284%
"Nc1ccc(S(=O)(=O)Nc2ccccn2)cc1 [SJ000285852-5, SULFAPYRIDINE]",U937 %inh,"[1]; U937 %inh, 10 µM",0.04414%
same,CMS %inh,"[2]; CMS %inh, 10 µM",2.339%
same,ML-2 %inh,"[3]; ML-2 %inh, 10 µM",-1.492%
same,CMK %inh,"[4]; CMK %inh, 10 µM",-1.27%
same,M07e %inh,"[5]; M07e %inh, 10 µM",0.899%
same,MV4-11 %inh,"[6]; MV4-11 %inh, 10 µM",1.788%
same,CHRF288-11 %inh,"[7]; CHRF288-11 %inh, 10 µM",1.364%
same,MOLM-13 %inh,"[8]; MOLM-13 %inh, 10 µM",1.863%
"CC(C(=O)O)c1ccc(C(=O)c2cccs2)cc1 (centres unmarked) [SJ000285866-4, SUPROFEN]",U937 %inh,[1],0.9376%
same,CMS %inh,[2],-1.053%
same,ML-2 %inh,[3],4.32%
same,CMK %inh,[4],0.7662%
same,M07e %inh,[5],-0.1194%
same,MV4-11 %inh,[6],-0.1438%
same,CHRF288-11 %inh,[7],0.5358%
same,MOLM-13 %inh,[8],1.517%
"Cc1ccc(S(=O)(=O)NC(=O)NN2CCCCCC2)cc1 [SJ000285887-7, TOLAZAMIDE]",U937 %inh,[1],-0.04508%
same,CMS %inh,[2],0.4752%
same,ML-2 %inh,[3],-1.198%
same,CMK %inh,[4],-1.031%
same,M07e %inh,[5],4.47%
same,MV4-11 %inh,[6],0.7665%
same,CHRF288-11 %inh,[7],90.56%
same,MOLM-13 %inh,[8],0.3359%
"NCCCC[C@H](N[C@@H](CCc1ccccc1)C(=O)O)C(=O)N1CCC[C@H]1C(=O)O [SJ000285890-4, LISINOPRIL]",U937 %inh,"[1]; U937 %inh, 10 µM",5.753%
same,CMS %inh,"[2]; CMS %inh, 10 µM",-0.4714%
same,ML-2 %inh,"[3]; ML-2 %inh, 10 µM",-0.08728%
same,CMK %inh,"[4]; CMK %inh, 10 µM",2.277%
same,M07e %inh,"[5]; M07e %inh, 10 µM",-2.951%
same,MV4-11 %inh,"[6]; MV4-11 %inh, 10 µM",2.293%
same,CHRF288-11 %inh,"[7]; CHRF288-11 %inh, 10 µM",-6.515%
same,MOLM-13 %inh,"[8]; MOLM-13 %inh, 10 µM",-2.286%
"NCCCC[C@H](N[C@@H](CCc1ccccc1)C(=O)O)C(=O)N1CCC[C@H]1C(=O)O [SJ000285890-5, LISINOPRIL]",U937 %inh,"[1]; U937 %inh, 10 µM",0.1781%
same,CMS %inh,"[2]; CMS %inh, 10 µM",-0.7769%
same,ML-2 %inh,"[3]; ML-2 %inh, 10 µM",2.151%
same,CMK %inh,"[4]; CMK %inh, 10 µM",-4.631%
same,M07e %inh,"[5]; M07e %inh, 10 µM",-0.6293%
same,MV4-11 %inh,"[6]; MV4-11 %inh, 10 µM",1.898%
same,CHRF288-11 %inh,"[7]; CHRF288-11 %inh, 10 µM",0.1312%
same,MOLM-13 %inh,"[8]; MOLM-13 %inh, 10 µM",-1.932%
"CCCCNc1cc(C(=O)O)cc(S(N)(=O)=O)c1Oc1ccccc1 [SJ000285893-7, BUMETANIDE]",U937 %inh,"[1]; U937 %inh, 10 µM",1.768%
same,CMS %inh,"[2]; CMS %inh, 10 µM",2.865%
same,ML-2 %inh,"[3]; ML-2 %inh, 10 µM",-1.959%
same,CMK %inh,"[4]; CMK %inh, 10 µM",-6.073%
same,M07e %inh,"[5]; M07e %inh, 10 µM",-2.011%
same,MV4-11 %inh,"[6]; MV4-11 %inh, 10 µM",-2.25%
same,CHRF288-11 %inh,"[7]; CHRF288-11 %inh, 10 µM",-2.258%
same,MOLM-13 %inh,"[8]; MOLM-13 %inh, 10 µM",-2.419%
"CCCCNc1cc(C(=O)O)cc(S(N)(=O)=O)c1Oc1ccccc1 [SJ000285893-8, BUMETANIDE]",U937 %inh,"[1]; U937 %inh, 10 µM",0.292%
same,CMS %inh,"[2]; CMS %inh, 10 µM",2.258%
same,ML-2 %inh,"[3]; ML-2 %inh, 10 µM",-0.3091%
same,CMK %inh,"[4]; CMK %inh, 10 µM",-0.903%
same,M07e %inh,"[5]; M07e %inh, 10 µM",45.31%
same,MV4-11 %inh,"[6]; MV4-11 %inh, 10 µM",2.839%
same,CHRF288-11 %inh,"[7]; CHRF288-11 %inh, 10 µM",-1.756%
same,MOLM-13 %inh,"[8]; MOLM-13 %inh, 10 µM",2.916%
"NC[C@H]1CC[C@H](C(=O)O)CC1 [SJ000285898-4, TRANEXAMIC ACID]",U937 %inh,[1],-1.275%
same,CMS %inh,[2],-4.095%
same,ML-2 %inh,[3],1.648%
same,CMK %inh,[4],-3.012%
same,M07e %inh,[5],0.2149%
same,MV4-11 %inh,[6],-0.1986%
same,CHRF288-11 %inh,[7],-2.741%
same,MOLM-13 %inh,[8],-3.616%
"CC(=O)OC/C=C(C)/C=C/C=C(C)/C=C/C1=C(C)CCCC1(C)C [SJ000285933-3, RETINYL ACETATE]",U937 %inh,[1],8.926%
same,CMS %inh,[2],2.535%
same,ML-2 %inh,[3],2.843%
same,CMK %inh,[4],13.65%
same,M07e %inh,[5],2.591%
same,MV4-11 %inh,[6],3.526%
same,CHRF288-11 %inh,[7],13.53%
same,MOLM-13 %inh,[8],0.103%
"CCOC(=O)OC(C)OC(=O)[C@@H]1N2C(=O)[C@@H](NC(=O)[C@H](N)c3ccccc3)[C@H]2SC1(C)C (some centres unmarked) [SJ000285946-4, BACAMPICILLIN HYDROCHLORIDE]",U937 %inh,[1],-1.553%
same,CMS %inh,[2],-1.038%
same,ML-2 %inh,[3],-0.2443%
same,CMK %inh,[4],-5.01%
same,M07e %inh,[5],-1.353%
same,MV4-11 %inh,[6],-1.634%
same,CHRF288-11 %inh,[7],-3.08%
same,MOLM-13 %inh,[8],6.375%
